Measured values taken from US12612395B2, “Rocaglate derivatives and uses thereof” (TRUSTEES OF BOSTON UNIVERSITY, priority 2023, dated 2026).

Experiments:
GBM0308 cells (CSCs) = experiment: Annexin V/PI flow cytometry apoptosis assay; type: cell-based, human; conditions: 1 μM, 12 h and 24 h
Description: (§1) To gain additional mechanistic insights into GBM cell death induced by (−)-20, the inventors conducted several functional assays. The inventors first derived a single neurosphere from GBM0308 cells cultured in stem cell conditions, which was treated with either DMSO or (−)-20 at varying doses for three days followed by staining with PI and Hoechst dyes and subsequent imaging. […] To capture the kinetics of apoptotic events, the inventors employed caspase 3/7 staining of GBM0308 neurospheres treated with either DMSO or (−)-20 and subsequently evaluated at three timepoints over a 48-hour period. […] (FIG. 5B).
(§2) Apoptosis Assays: For the Caspase 3/7 assay single neurospheres were generated as described above. On day four, neurospheres were treated with compound (−)-20. Apoptosis in treated tumorspheres was assessed using Nexcelom's ViaStain™ Live Caspase 3/7 Detection kit (Nexcelcom, CS1-V0002-1). […] Plates were imaged using the “neurosphere 1+Mask” application to measure fluorescent intensities of the caspase dye, as described previously.^70 Apoptosis was quantified using the FITC Annexin V apoptosis detection kit II (Invitrogen). […] At 12 h and 24 h after treatment, neurospheres were gently dissociated by using trypsin 0.025%, stained with PI and FITC and analyzed by flow cytometery using a Bio-Rad ZE5 Cell Analyzer.

GBM0308 neurospheres [1] = experiment: Neurosphere formation assay (single neurosphere, PI/Hoechst); type: cell-based; conditions: three days treatment
Description: as §1
Neurosphere Formation Assays: Single neurospheres were generated by seeding GBM0308 cells (400 cells per well) in a 384-well ultra-low attachment round bottom microplate (Nexcelom Bioscience, ULA-384 U). The plates were then centrifuged at 300×g for 10 minutes to cluster cells at the bottom of the wells, followed by incubation at 37° C. and 5% CO2 for 4 days to allow the formation of single neurospheres and treated with either DMSO or drugs at concentrations of 3.3, 1.11, 0.37, 0.12, 0.041, 0.013, 0.004 μM. On Day 7, neurospheres were stained with propidium iodide and Hoechst, as described above. The “neurosphere 1+Mask” application was used to measure the fluorescent intensities of PI, using Celigo cytometer as described previously.^70

GBM0308 neurospheres [2] = experiment: Caspase 3/7 staining of neurospheres; type: cell-based, human; conditions: 1 μM, 24- and 48-hour timepoints
Description: as §1, §2

DDX3X = target: T1, DDX3X (Homo sapiens, UniProt O00571); experiment: PISA assay in GBM0308 cell lysates, DDX3X; type: binding; conditions: GBM0308 lysate, compound 10 μM, AMP-PNP and (AG)8 RNA added
T1 construct: endogenous in cells; host or cells: GBM0308 glioblastoma stem cells (lysate)
T1 sequence (O00571 whole entry): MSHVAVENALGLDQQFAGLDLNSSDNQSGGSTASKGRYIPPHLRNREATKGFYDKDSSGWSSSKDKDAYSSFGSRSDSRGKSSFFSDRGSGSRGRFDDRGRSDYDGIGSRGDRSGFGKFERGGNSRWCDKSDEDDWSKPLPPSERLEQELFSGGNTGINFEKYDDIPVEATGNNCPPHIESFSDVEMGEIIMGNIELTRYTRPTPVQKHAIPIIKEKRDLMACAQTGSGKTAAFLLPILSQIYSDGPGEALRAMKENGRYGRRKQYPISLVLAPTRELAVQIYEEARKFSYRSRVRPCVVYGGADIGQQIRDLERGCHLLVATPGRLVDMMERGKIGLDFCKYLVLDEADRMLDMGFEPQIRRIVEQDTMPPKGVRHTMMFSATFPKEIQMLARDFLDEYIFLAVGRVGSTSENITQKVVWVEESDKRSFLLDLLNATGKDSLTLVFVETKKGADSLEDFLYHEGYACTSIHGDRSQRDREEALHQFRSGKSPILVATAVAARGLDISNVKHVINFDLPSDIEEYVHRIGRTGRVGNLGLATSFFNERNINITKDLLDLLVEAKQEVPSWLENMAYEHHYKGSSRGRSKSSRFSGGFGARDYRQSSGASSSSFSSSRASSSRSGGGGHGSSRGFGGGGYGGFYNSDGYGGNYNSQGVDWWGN
Source text: Derivatization-free target identification using a modified proteome integral solubility alteration (PISA) assay. The inventors next pursued proteome-wide target identification to better understand the target profiles of CSC-selective rocaglates. To enable cross-compound comparisons of target engagement, the inventors opted to use the Proteome Integral Solubility Alteration (PISA) assay,^29 a derivative of the mass spectrometry-based Cellular Thermal Shift Assay (MS-CETSA). In MS-CETSA,^30,31 target engagement is inferred through proteome-wide analysis of compound-induced changes to protein thermal stability; proteins with a shift in their half-maximal thermal denaturation temperature upon compound treatment are flagged as potential targets. The PISA assay obviates the need for MS-CETSA-derived thermal denaturation curves through curve integration by pooling of individual temperature points into a single “integral” sample for each treatment condition, thereby increasing throughput (FIG. 9). In contrast to MS-CETSA (which relies on curve comparisons), PISA determinations are performed by simply comparing soluble protein abundance levels between compound- and DMSO-treated samples. Importantly, protein fold-change measurements in PISA experiments generally scale with the thermal shift derived from CETSA experiments, and the magnitude of a thermal shift can inform on relative affinity between compounds and individual targets.^30,32-25 Maximal stability changes are protein-specific,^36 however, precluding estimations of preference for one target over another. Thus, PISA allows for simultaneous target profiling and comparisons of binding affinity between different compounds within a given target.
Of note, we also detected stabilization of DDX3Y, a paralog which shares >90% sequence similarity with DDX3X.
PISA assay in GBM0308 cell lysates: The PISA assay was performed in lysates as described by Gaetani and coworkers^S2 with slight modification. […] Lysate concentration was determined using a Pierce BCA Protein Assay Kit and adjusted to 2.0 mg/mL in lysis buffer. […]

SMILES | Annexin V/PI staining (apoptosis) (GBM0308 cells (CSCs)) | concentration from which cytotoxic effects on CSC neurospheres are seen (PI staining) (GBM0308 neurospheres [1]) [nM] | effect on neurosphere size, in words (GBM0308 neurospheres [1]; varying doses) | caspase 3/7 staining (GBM0308 neurospheres [2]) | thermal stabilization of DDX3X (PISA), in words (DDX3X)
COc1cc(OC)c2c(c1)O[C@@]1(c3ccc(Br)cc3)[C@H](c3ccccc3)[C@@H](C(=O)NS(=O)(=O)N(C)C)[C@@H](O)[C@@]21O [(−)-20, (1R,2R,3S,3aR,8bS)-3a-(4-bromophenyl)-N—(N,N-dimethylsulfamoyl)-1,8b-dihydroxy-6,8-dimethoxy-3-phenyl-2,3,3a,8b-tetrahydro-1H-cyclopenta[b]benzofuran-2-carboxamide] | induced apoptosis | ≥ 120 | dose-dependent reduction in neurosphere size | positive staining | stabilized
CONC(=O)[C@H]1[C@@H](O)[C@@]2(O)c3c(OC)cc(OC)cc3O[C@@]2(c2ccc(Br)cc2)[C@@H]1c1ccccc1 [(−)-7, SDS-1-021] |  |  |  |  | stabilized
